Converted amounts (≈) assume the structure as drawn.
How the values were obtained:
[1] = test system: SMMC-7721 (human hepatic cancer cells); assay: Inhibition on human tumor cell lines in MTT method in vitro; type: cell-based; conditions: SMMC-7721, MTT, 48 h
Description: (§1) Experimental Materials and the Preparation Thereof: • (1) Cell lines: PANC-1 (human pancreatic cancer cells), SKOV3 (human ovarian cancer cells), MCF-7 (human breast cancer cells), Bcap-37 (human breast cancer cells), SMMC-7721 (human hepatic cancer cells), HepG-2 (human hepatic cancer cells), A549 (human lung cancer cells) and H460 (human lung cancer cells), storaged and passaged maintainably in Research and Evaluation Center for Pharmacology, Shanghai Institute of Pharmaceutical Industry; • (2) DMEM complete medium supplied with 10% newborn calf serum (GIBCO BRL), 1% of penicillin (100 U/mL)+streptomycin (100 μg/mL); • (3) 0.25% trypsin solution, purchased from Invitrogen Corp. and storaged at −20° C.; • (4) Phosphate buffer (PBS): NaCl 8 g, KCl 0.2 g, Na2HPO4 1.15 g and KH2PO4 0.2 g, dissolved in 1 L double-distilled water and autoclaved at 121° C. for 20 min, then storaged at 4° C.; • (5) MTT (AMRESCO) solution: 5 mg/ml in PBS; • (6) Formazan crystal dissolving solution: SDS 10 g, isobutanol 5 ml and concentrated hydrochloric acid 0.1 ml, dissolved in 100 ml of deionized double distilled water.
(§2) The inhibition effects of samples on the above-mentioned cell lines were detected by using MTT method. The specific procedures were as follows:
(§3) (1) Cell culture: (a) Storaged cells were taken out from the liquid nitrogen, thawed quickly in a 37° C. water bath, then aseptically transferred into 6 ml of cellular medium in a 10 ml centrifugal tube, and centrifuged at 1000 rpm for 5 min. The supernatant was discarded, then the precipitated cells were re-suspensed in 5-6 ml cellular media by pipetting and transferred into a flask in a 37° C. incubator for cell culture; (b) Next day, the flask was taken out from the incubator and the used medium was discarded, then the cells were incubated in 5-6 ml fresh medium in the 37° C. incubator; (c) On the third day, the flask was taken out from the incubator and the used medium was discarded, then 2-3 ml of PBS (pH7.4) was added into the flask with rocking for cleaning it and the used PBS was discarded. Such a cellular cleaning step was repeated once again. 3-5 drops of 0.25% trypsin solution were added into the flask with sloshing, thus well-distributed in it. The flask was capped and placed in a 37° C. incubator for about 3 min, and the separation of cells from the flask wall was observed under the microscope. […]
(§4) (4) Cells in a logarithmic growth stage were trypsinized and washed, then re-suspended in the medium containing 10% calf serum. The number of living cells was counted in Trypan blue dye exclusion method and cell suspensions were adjusted into a density of 2×10^5 cell/ml. […]

[2] = test system: Bcap-37 (human breast cancer cells); assay: as above; type: cell-based; conditions: Bcap37, Bcap-37, MTT, 48 h
Description: as §1, §2, §3, §4

[3] = test system: H460 (human lung cancer cells); assay: as above; type: cell-based; conditions: NCI-H460, 48 h
Description: as §1, §2, §3, §4

[4] = test system: PANC-1 (human pancreatic cancer cells); assay: as above; type: cell-based; conditions: PANC-1, MTT, 48 h
Description: as §1, §2, §3, §4

Splenocytes = assay: Splenic lymphopoiesis induced by ConA in mice in vitro (3H-TdR incorporation); type: cell-based, C57BL/6 mice; conditions: 100 μl
Description: Spleens were picked up from C57BL/6 mice in aseptic condition. Splenocytes were separated and the concentration of cells was adjusted to 1×10^7 cells/ml with RPMI 1640+15% FCS medium. The experiment groups were as follows: the injection of the invention in four concentrations, lentinan (positive control group) in four concentrations, corresponding solvent (blank control I) and medium (blank control II). 100 μl Cells, 100 μl solution of drug/control and 50 μl ConA were added in each well in triplicate. The 96 well microplate was incubated in a 37° C. incubator under 5% CO2 for 48 h. ^3H-TdR (0.5 μci/well) was added and the incubation was continued for 20 h. Cells were collected, and CPM values were determined in a liquid scintillation counter and compared with control groups. It is shown in the results (table 3) that the injection of the invention, as same as lentinan, has obviously facilitated the splenic lymphopoiesis in mice in vitro and the effect is linear dependent to the concentration.

IL-2 = assay: Production of IL-2 in mice bearing cancer (L1210), IL-2 dependent CTLL cell strain; type: in vivo, DBA/2 mice; conditions: 20 mg/kg, iv × 7, mice suffering from L1210 leukemia
Description: Each of 60 DBA/2 mice was inoculated subcutaneously with 1×10^4 L1210 leukemia cells of mice. Next day, the mice were grouped randomly into 6 groups (10 mice per group): Lentinan 20 mg/kg, the injection of the invention (6.25 ml/kg, 12.5 ml/kg and 25 ml/kg), solvent control and NS control. Animals were administered, i.v., for 7 days, then sacrificed. Spleens were picked up in aseptic condition. Splenocytes were prepared and adjusted into 1×10^7/ml. To each well of a 24 well plate were added splenocytes cells (2 ml) and Con A (5 μg/ml). After the plate was incubated in a 37° C. incubator under 5% CO2 for 24 h, the supernate was collected. The activity of IL-2 was determined in IL-2 dependent CTLL cell strain by using the method of ^3H-TdR incorporation.

NK cells [5] = assay: Activity of natural killer cells (NK cells) in mice in vitro (inhibition on 3H-TdR incorporation, YAC-1 target cells); type: cell-based, C57BL/6 mice; conditions: 100 μl; for CPM (x ± SD): Splenocytes:YAC-1=100:1, 24 h
Description: Method: The activity of NK cells were detected by the inhibition on ^3H-TdR incorporation.
Spleens were picked up from C57BL/6 mice in aseptic condition. Splenocytes, as effector cells, were adjusted to 1×10^6 cells/ml. YAC-1 cells, target cells, which have been cultured for 24 h, were adjusted to 1×10^4 cells/ml. The cells were added into wells of a 96 well microplate (100 μl/well). The experiment groups were as follows: the injection of the invention in four concentrations, lentinan (positive control group) in four concentrations, corresponding solvent (blank control I) and medium (blank control II). To each well of a 96 well microplate were added cells (Splenocytes: YAC-1=100:1) (100 μl), test sample (100 μl) and ^3H-TdR 0.5 μci/well. After being incubated in a 37° C. incubator under 5% CO2 for 24 h, cells were collected, and CPM values were determined. The specific percentage inhibition (Pi), indicating the activity of NK cells, was calculated according to the formula: Pi=(1−CPMExp./CPMcont.)×100%

NK cells [6] = assay: Activity of NK cells in mice bearing cancer (L1210); type: in vivo, DBA/2 mice; conditions: 20 mg/kg, iv × 7, mice bearing L1210
Description: Each of 60 DBA/2 mice was inoculated subcutaneously with 1×10^4 L1210 leukemia cells of mice. Next day, the mice were grouped randomly into 6 groups (10 mice per group): Lentinan 20 mg/kg (positive control), the injection of the invention (6.25 ml/kg, 12.5 ml/kg and 25 ml/kg), solvent control and NS control. Animals were administered, i.v., for 7 days, then sacrificed. Spleens were picked up in aseptic condition. Splenocytes were prepared and adjusted into 1×10^6/ml. The activity of NK cells was detected by using the inhibition on ^3H-TdR incorporation. To wells of a 96 well microplate were added splenocytes cells (effector cells) 100 μl/well, YAC-1 cells (target cells, 1×10^4 cells/ml) 100 μl/well and ^3H-TdR 0.5 μci/well, in triplicate. After being incubated in a 37° C. incubator under 5% CO2 for 24 h, cells were collected, and CPM values were determined. The specific percentage inhibition (Pi), indicating the activity of NK cells, was calculated according to the above formula.

[7] = test system: splenocytes of mice bearing L1210 leukemia cells; assay: Splenic lymphopoiesis in mice bearing L1210 leukemia cells; type: in vivo, DBA/2 mice; conditions: 20 mg/kg, iv × 7, mice bearing L1210
Description: Each of 60 DBA/2 mice was inoculated subcutaneously with 1×10^4 L1210 leukemia cells of mice. Next day, the mice were grouped randomly into 6 groups (10 mice per group): Lentinan 20 mg/kg, the injection of the invention (6.25 ml/kg, 12.5 ml/kg and 25 ml/kg), solvent control and NS control. Animals were administered, i.v., for 7 days, then sacrificed. Spleens were picked up in aseptic condition. Spleens were homogenized and splenocytes were counted and adjusted into 1×10^7/ml. Cells (100 μl/well) and medium (100 μl/well) were added into wells of a 96 well microplate in triplicate. The 96 well microplate was incubated in a 37° C. incubator under 5% CO2 for 48 h. Then, ^3H-TdR (0.5 μci/well) was added and the incubation was continued for 20 h. Cells were collected, and CPM values were determined and compared with control groups. […] Lentinan has also shown immuno-enhancement effect.

IC50 [1] [µg/mL]	IC50 [2] [µg/mL]	IC50 [3] [µg/mL]	IC50 [4] [µg/mL]	Compound	CPM (x ± SD) (Splenocytes; (1:1) dilution) [CPM]	CPM (x ± SD) (Splenocytes; (1:2) dilution) [CPM]	CPM (x ± SD) (Splenocytes; (1:4) dilution) [CPM]	CPM (x ± SD) (Splenocytes; (stock solution)) [CPM]	CPM (x ± SD) (production of IL-2) (IL-2) [CPM]	Pi % (specific percentage inhibition, activity of NK cells) (NK cells [5]; (1:1) dilution) [%]	CPM (x ± SD) (NK cells [5]; (1:1) dilution) [CPM]	Pi % (specific percentage inhibition, activity of NK cells) (NK cells [5]; (1:2) dilution) [%]	CPM (x ± SD) (NK cells [5]; (1:2) dilution) [CPM]	Pi % (specific percentage inhibition, activity of NK cells) (NK cells [5]; (1:4) dilution) [%]	CPM (x ± SD) (NK cells [5]; (1:4) dilution) [CPM]	Pi % (specific percentage inhibition, activity of NK cells) (NK cells [5]; (stock solution)) [%]	CPM (x ± SD) (NK cells [5]; (stock solution)) [CPM]	CPM (x ± SD) (NK cells [6]) [CPM]	Pi (%) (activity of NK cells) (NK cells [6])	CPM (x ± SD) [7] [CPM]
0.41 (≈ 0.48 µM)	0.28 (≈ 0.328 µM)	0.49 (≈ 0.574 µM)	0.44 (≈ 0.515 µM)	CC(=O)O[C@H]1C(=O)[C@@]2(C)[C@H]([C@H](OC(=O)c3ccccc3)[C@]3(O)C[C@H](OC(=O)[C@H](O)[C@@H](NC(=O)c4ccccc4)c4ccccc4)C(C)=C1C3(C)C)[C@]1(OC(C)=O)CO[C@@H]1C[C@@H]2O [Taxol]	–	–	–	–	–	–	–	–	–	–	–	–	–	–	–	–
–	–	–	–	Lentinan	7700 ± 747	11025 ± 1133	11555 ± 1279	7420 ± 957	2750 ± 123	33.5	8130 ± 930	35.5	7892 ± 995	54.5	5544 ± 85	29.5	8625 ± 1135	5660 ± 260	54.5	7410 ± 770

Reference: patent US9884037B2, “Pharmaceutical composition containing 8 triglycerides, and preparations and use thereof” (ZHEJIANG KANGLAITE GROUP CO., LTD., priority 2014, dated 2018)
